Here are results for 2 molecules from patent US20090061031A1, “Compositions and methods for treating obesity, obesity related disorders and for inhibiting the infectivity of human immunodeficiency virus” (priority 2006, published 2009).

Several values for one entry are separate records, joined by “and”; a condition that tells them apart may be missing. Identical values can stand only once. Like-named read-outs stand apart in the source and are kept apart here.

Data set [1] has as its target T1, HIV-1 integrase (Human immunodeficiency virus type 1 group M subtype B, UniProt P12497, C1427S/F1332H). Briefly: HIV-1 integrase disintegration assay. Type of data set: biochemical. To be noted: read-out: EC50s of inhibition of disintegration product formation.
A short description of data set [2]: in vitro. To be noted: human.
Method: Uninfected MT2 and H9 cell lines, and HIV-1IIIB chronically infected H9 (H9/HIV-1IIIB) and HIV-1/IIIB virus, were obtained through the AIDS Research and Reference Reagent Program, NIAID, NIH. […] The cell lines were cultured in RPMI medium 1640 containing 100 U/ml penicillin, 100 μg/ml streptomycin, 2 mM L-glutamine, and 10% heat-inactivated fetal calf serum. Viral stocks were prepared and standardized as described [8].
Cytotoxicity was evaluated by the MTT assay [8].
Data set [3] addresses T1, HIV-1 integrase. As to the kind of experiment: HIV-1 integrase 3′-processing assay. To be noted: 21-mer U3 substrate, read-out: Inhibitory Activity EC50 HIV-1 Integrase 3′-Proc. Format: biochemical.
Data set [4] has as its target T2, HIV-1 gp41 fusion core 6HB (N36 + C34) (Human immunodeficiency virus type 1 group M subtype B, UniProt P04578). Briefly: Fusion core 6HB formation by native PAGE. To be noted: Inhibitory Activity EC50 Fusion Core Formation 6HB (N36 + C34) N-PAGE, N36 pre-incubated with compound.
Method: (§1) Fusion complex formation was carried out by incubating equimolar amounts of HIV-1 gp41 fusion peptides N36 and C34 in PBS (Phosphate Buffer Saline, containing 50 mM sodium phosphate, pH 7.2 and 150 mM NaCl) at 10 or 20 μM each at 37° C. […] Next, an equimolar amount of C34 was added and the samples incubated for 30 min.
N-PAGE was carried out as previously reported [13] with modifications that involve fusion peptide concentration, order of reactions, and time of incubation in fusion complex formation. Tris-glycine gels (18%, Invitrogen, Carlsbad, Calif.) were electrophoresed at 120 V for 2 h, stained with Coomassie Blue and analyzed by densitometry.
Details of data set [5]: species or system C57BL/6 wild-type mice. As to conditions: mouse, in vivo, po. As to the method:
To verify that we can administer oleuropein chronically to mice, we added purified oleuropein to drinking water at concentrations of 5 μg/ml, 50 μg/ml, 500 μg/ml, and 5 mg/ml. The water intake of mice averages 5 ml per mouse per day, these dosages of oleuropein result in daily doses of 0.025 mg, 0.25 mg, 2.5 mg, and 25 mg per mouse per day (equivalent to 1, 10, 100, and 1000 mg/kg body weight). 5 male and 5 female C57BL/6 wild-type mice were used for each dose of oleuropein, and housed them in metabolic cages that allow precise determination of water intake and quantitative urine collection.
After seven days to 4 months of chronic steady-state administration, mice blood and urine were collected. 100 μl of serum or urine were extracted with 1 ml ethyl acetate, evaporated to dryness, and reconstituted with 25 μl water and 5 μl was injected for LC-MS analysis.
LC-MS quantitation was performed using an HP1100 equipped with diode array detector and ESI-mass spectrometer. LC was done using a C18 column (4×20 mm), with a 4 minute elution using a gradient of 5-95% CH3CN—H2O containing 1% acetic acid. The diode array recordings were made at 280 nm and 230 nm, and the ESI mass spectrum was made in negative detection mode. Purified oleuropein, and hydroxytyrosol (synthesized by us) were used as standards. The injection volumes were 5 μl. […]

The test system of data set [6] is HIV-1. Briefly: HIV-1 core protein p24 production. Type of data set: cell-based, HIV-1IIIB. To be noted: Human immunodeficiency virus 1, 50% inhibition, read-out: Anti-HIV Activity EC50 P24.
Data set [7] has as its system apoE ko mice. As to the kind of experiment: Diet-induced atherosclerosis in Western diet-fed apoE ko mouse. Format: in vivo. As to conditions: 0.25 mg/ml in drinking water (daily dose 1.25 mg), 4 months. The protocol: To test whether oleuropein reduces diet-induced atherosclerosis, oleuropein was administered to apoE ko mice at various doses from 0.25 mg/ml, 2.5 mg/ml, and 25 mg/ml in the drinking water followed by feeding them with a Western diet containing 42% of calories from fat (Harlan-Teklad). […] The mice were sacrificed, blood and tissues collected. Aortas were dissected from the aortic valve to the iliac bifurcation, opened longitudinally, and pinned to a black wax surface. Atherosclerotic lesions were stained with Oil Red O. The total area of the aorta and the atherosclerotic lesion areas were determined by planimetry using Image Pro software.

The subject of data set [8] is HIV-1 primary isolates, M and T tropic strains from different clades. Briefly: Activity against a panel of HIV-1 primary isolates. Format: cell-based.
In data set [9] the test system is HIV-1. Type of data set: cell-based, HIV-1IIIB.
For data set [10], the target named is T1, HIV-1 integrase. As to the kind of experiment: HIV-1 integrase strand-transfer (integration) assay. Format: biochemical. As to conditions: U3-GT into pUC18, read-out: Inhibitory Activity EC50 HIV-1 Integrase ST.
The target of data set [11] is T2, HIV-1 gp41 fusion core 6HB (N36 + C34). As to the kind of experiment: Fusion core 6HB formation by circular dichroism spectroscopy. (In general: Circular dichroism is widely used to follow secondary structure.)
Method: as §1
CD spectra were recorded on an AVIV 62-DS CD spectrometer, using 1 mm sample cells and a fixed temperature of 4° C. […] Each spectrum is a smoothed average of 10 scans. The bandwidth for each measurement was 1 nm. […] Prior to calculation of the final ellipticity, all spectra were corrected by subtracting the reference spectra of PBS without peptides.
The mark [12] stands for this setting: Human immunodeficiency virus 1, syncytial formation, 50% inhibition, read-out: Anti-HIV Activity EC50 Syncytium.

T2 sequence (P04578 546-581): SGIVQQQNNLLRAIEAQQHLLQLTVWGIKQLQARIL

`C/C=C1/[C@H](O[C@@H]2O[C@H](CO)[C@@H](O)[C@H](O)[C@H]2O)OC=C(C(=O)OC)[C@H]1CC(=O)OCCc1ccc(O)c(O)c1` (single isomer, unassigned) [Ole, oleuropein]: the EC50 in data set [1] was 28 nM; in [3], 46 nM; in [4] it was ~66 nM and 66 nM; in data set [6] it was 73 nM; in [9] (Human immunodeficiency virus 1, read-out: average EC50 for syncytial formation) it was 55 nM; in data set [9] (setting [12]) it was 55 ± 5 nM. The results for the EC50 in [10] and in data set [11] were 56 nM and 62 nM, respectively. For the same molecule, in data set [2], the half-maximal inhibitory concentration (IC50) (in general, the point on the concentration scale where inhibition reaches its midpoint) was over 10000 nM. In data set [5], the tolerability in animals result was “well tolerated”. Besides, the “serum levels of oleuropein” value in [7] is reported as “comparable to those in animals fed a diet supplemented with olive oil”. The “activity against HIV-1 primary isolates” value in data set [8] is “active”.

Take `OCCc1ccc(O)c(O)c1` [HT, hydroxytyrosol]: the EC50 in data set [1] was 18 nM; in [3], 54 nM; in data set [4] it was ~58 nM and 58 nM; in data set [6] it was 68 nM; in data set [9] (setting [12]), 61 nM; in data set [10] it was 43 nM. The EC50 in data set [11] is 60 nM. In data set [2], this molecule yielded a 50% inhibitory concentration (IC50) of over 10000 nM. In [8], the “activity against HIV-1 primary isolates” value was “active”.
